Test results published in US20050014806A1, “Substituted isoxazoles and their use as antibiotics” (priority 2001, published 2005).
Converted amounts (≈) assume the structure as drawn.

How the values were obtained:
[1] = tested on: Streptococcus faecalis (BCM-010); experiment: MIC by microdilution in microtiter plate, BCM-010; type: cell-based; conditions: Enterococcus faecalis, incubation 24 h at 35° C.
Experimental: (§1) In order to assess the antimicrobial activity of the compounds of the present invention a method of microdilution in microtiter plate was used. The compounds were diluted in a nutritious medium and, subsequently, distributed by two-fold serial dilutions in 96 well plates. Then, plates were inoculated with a bacterial suspension. After incubation for 24 h at 35° C. the minimum inhibitory concentration (MIC) of the drug in […] was determined as the lowest concentration of compound which inhibits the growth of the bacterium. Results included in Table 1 illustrate the antimicrobial activity of some of the compounds of the present invention in comparison with thus obtained with two compounds (linezolid and eperezolid) of a known antimicrobial activity. The antimicrobial activity of the compound versus Streptococcus faecalis (BCM-010, strain designation as for SALVAT collection) Staphylococcus aureus (BCM-012, strain designation as for SALVAT collection) and Moraxella catarrhalis (BCM-015, strain designation as for SALVAT collection), respectively, is shown in the different columns.

[2] = tested on: Staphylococcus aureus (BCM-012); experiment: MIC by microdilution in microtiter plate, BCM-012; type: cell-based; conditions: incubation 24 h at 35° C.
Experimental: as §1

[3] = tested on: HCT-116; experiment: cells; type: cell-based, human; conditions: for viability at 100 µM: Homo sapiens, HCT-116, read-out: Cell viability percentage at 100 μM HCT-116
Experimental: (§2) Antitumoral activity of the compounds of the present invention was evaluated by determining in vitro cell growth inhibition of 2 human colon adenocarcinome cell lines. The SBR (Sulphorhodamine B) protein dye assay described by the NCI (National Cancer Institute) was used. Results of Table 2 illustrate the antiproliferative activity of some of the compounds of the present invention versus the one obtained with exisulind (sulindac sulfone).

[4] = tested on: HT-29; experiment: cells; type: cell-based, human; conditions: for viability at 100 µM: Homo sapiens, HT-29, read-out: Cell viability percentage at 100 μM HT-29
Experimental: as §2

[5] = tested on: Moraxella catarrhalis (BCM-015); experiment: MIC by microdilution in microtiter plate, BCM-015; type: cell-based; conditions: incubation 24 h at 35° C.
Experimental: as §1

Molecule	MIC [1] [µg/mL]	MIC [2] [µg/mL]	viability at 100 µM [3] [%]	viability at 100 µM [4] [%]	MIC [5] [µg/mL]	Cell viability percentage at 100 μM HCT-116 [3] [%]	Cell viability percentage at 100 μM HT-29 [4] [%]
OCc1cn(-c2ccc(-c3cc(CNc4ccon4)on3)cc2F)cn1 [Example 4]	4 (≈ 11.3 µM)	2 (≈ 5.63 µM)	57.1	66.1			
O=Cc1cn(-c2ccc(-c3cc(CNc4ccon4)on3)cc2F)cn1 [Example 27, 1-{2-fluoro-4-[5-(isoxazol-3-ylaminomethyl)isoxazol-3-yl]phenyl}-1H-imidazol-4-carboxaldehyde]	2 (≈ 5.66 µM)	0.5 (≈ 1.42 µM)			4 (≈ 11.3 µM)		
N#C/C=C/c1cn(-c2ccc(-c3cc(CNc4ccon4)on3)cc2F)cn1 [Example 28]	1 (≈ 2.66 µM)	0.5 (≈ 1.33 µM)	64.7	71.2	4 (≈ 10.6 µM)		
COc1ccccc1NCc1cn(-c2ccc(-c3cc(CNc4ccon4)on3)cc2F)cn1 [Example 29, [3-(3-fluoro-4-{4-[(2-methoxiphenylamino)-methyl]imidazol-1-yl}phenyl)isoxazol-5-ylmethyl]isoxazol-3-ylamine]	1 (≈ 2.17 µM)	0.5 (≈ 1.09 µM)			4 (≈ 8.69 µM)		
Cc1ccccc1NCc1ccn(-c2ccc(-c3cc(CNc4ccon4)on3)cc2F)c1 [Example 30, (3-{3-fluoro-4-[3-(o-tolylaminomethyl)pyrrol-1-yl]phenyl}isoxazol-5-ylmethyl)isoxazol-3-ylamine]	1 (≈ 2.25 µM)	0.5 (≈ 1.13 µM)			16 (≈ 36.1 µM)		
Cc1cn(-c2ccc(-c3cc(CNc4cc(C)ns4)on3)cc2F)cn1 [Example 34, {3-[3-fluoro-4-(4-methylimidazolyl)phenyl]isoxazol-5-ylmethyl}-(3-methyl-isothiazol-5-yl)amine]	1 (≈ 2.71 µM)	1 (≈ 2.71 µM)			4 (≈ 10.8 µM)		
N#C/C=C/c1ccn(-c2ccc(-c3cc(CNc4ccon4)on3)cc2F)c1 [Example 36]			77.1	14.3			
Cc1cc(NCc2cc(-c3ccc(-n4ccc(/C=C/C#N)c4)c(F)c3)no2)sn1 [Example 37]			18.9	< 5			
Cc1cn(-c2ccc(-c3cc(CNc4ccon4)on3)cc2F)cn1 [Example 38]			48.6	53.3			
CC(=O)NC[C@H]1CN(c2ccc(N3CCOCC3)c(F)c2)C(=O)O1 [Linezolid, linezolid, reference compound]	4 (≈ 11.9 µM)	2 (≈ 5.93 µM)			4 (≈ 11.9 µM)		
sulindac sulfone [Exisulind, reference compound]						44.1	38.1
